Assay results reported in US10188636B2 (Cipla (UK) Limited, priority 2015, dated 2019).

How the values were obtained:
[1] = tested on: MAP2; assay: MAP2 mRNA expression by quantitative RT-PCR in icv streptozotocin-induced Alzheimer's disease model; format: in vivo, mice; conditions: for Expression levels of MAP2 gene (Mean ± SD): relative mRNA normalized to GAPDH, Vehicle 1.0 ± 0.4
Method: (§1) Seven-week-old male C57BL/6 mice were obtained from Japan SLC, (Japan). The animals were maintained in a SPF facility under controlled conditions of temperature (23±2° C.), humidity (45±10%), lighting (12-hour artificial light and dark cycles; light from 8:00 to 20:00) and air exchange. On day 0 and day 2, 60 mice were anesthetized with pentobarbital sodium (Kyoritsu Seiyalu, Japan) and intracerebroventricularly (icy) administered two doses of streptozotocin (STZ, Sigma-Aldrich, USA) in saline at a dose of 3 mg/kg. The icv-STZ-induced Alzheimer's disease model mice were divided into 6 groups of 10 mice based on their body weight on the day before the start of the treatment.
Expression levels of MAP2, a cytoskeletal modulator that has been implicated in the pathogenesis of Alzheimer's disease and a member of MAP2/tau family, was measured by quantitative RT-PCR. Total RNA was extracted from brain samples using RNAiso (Takara Bio, Japan) according to the manufacturer's instructions. One μg of RNA was reverse-transcribed using a reaction mixture containing 4.4 mM MgCl2 (F. Hoffmann-La Roche, Switzerland), 40 U RNase inhibitor (Toyobo, Japan), 0.5 mM dNTP (Promega, USA), 6.28 μM random hexamer (Promega), 5× first strand buffer (Promega), 10 mM dithiothreitol (Invitrogen, USA) and 200 U MMLV-RT (Invitrogen) in a final volume of 20 μL. The reaction was carried out for 1 hour at 37° C., followed by 5 minutes at 99° C. Real-time PCR was performed using real-time PCR DICE and SYBR premix Taq (Takara Bio). To calculate the relative mRNA expression level, the expression of each gene was normalized to that of reference gene GAPDH.

[2] = tested on: GFAP; assay: GFAP immunohistochemistry in icv streptozotocin-induced Alzheimer's disease model; format: in vivo; conditions: icv-STZ mice, oral once daily day 0 to day 14; betahistine 30 and 100 mg/kg, donepezil 0.5 mg/kg; compared with Vehicle group; FIG. 3
Method: as §1

[3] = tested on: APPSwDI/NOS2−/− mice; assay: Contextual Fear Conditioning test in APPSwDI/NOS2−/− transgenic mice; format: in vivo; conditions: once-a-day p.o., after two months of treatment, vs vehicle, FIG. 2
Method: -/- are double transgenic mice which display […] spatial memory, neuronal loss and neurofibrillary tangle like pathology. […] Treatment was continued for 2.5 months. After two months of treatment, starting at the age of 14.5 months the mice were subjected to Contextual Fear Conditioning (CFC) test. The test was performed as follows Training consisted of placing a mouse in a chamber, bright house light on, and allowing exploration for 2 min. Afterward an auditory cue (1700 Hz, 80 dB, conditioned stimulus (CS)) was presented for 15 s. A 2 s foot shock (1.5 mA; unconditioned stimulus (US)) was administered for the final 2 s of the CS. This procedure was repeated, and the mouse was removed from the chamber 30 s later. Twenty hours (±30 min) after the training, the mouse was returned to the same chamber in which the training occurred (memory for context), and freezing behavior was recorded by a computerized camera tracking system. The automated Freeze Frame system, which digitized the video signal at 4 Hz and compared movement of the mouse frame by frame, was used to score the amount of freezing. At the end of the 5 min context test, the mouse was returned to its home cage. Freezing scores for each subject were expressed as a percentage for memory for context.

[4] = molecular target: histamine H3 receptors (Homo sapiens, UniProt Q9Y5N1); conditions: general statement in description; cited from earlier work
Chain of histamine H3 receptors (Q9Y5N1 whole entry): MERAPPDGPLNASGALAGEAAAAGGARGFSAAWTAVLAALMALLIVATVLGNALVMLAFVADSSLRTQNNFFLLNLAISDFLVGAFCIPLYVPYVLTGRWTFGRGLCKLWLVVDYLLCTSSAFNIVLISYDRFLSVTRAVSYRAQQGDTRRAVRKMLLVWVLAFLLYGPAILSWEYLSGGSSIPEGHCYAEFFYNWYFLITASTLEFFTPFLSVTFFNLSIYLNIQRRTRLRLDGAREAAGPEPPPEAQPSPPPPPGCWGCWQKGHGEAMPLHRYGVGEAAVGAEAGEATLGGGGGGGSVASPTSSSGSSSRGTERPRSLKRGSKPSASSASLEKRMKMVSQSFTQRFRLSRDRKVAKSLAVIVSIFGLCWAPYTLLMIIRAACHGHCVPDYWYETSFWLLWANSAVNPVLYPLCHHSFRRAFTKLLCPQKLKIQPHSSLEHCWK

[5] = tested on: primary rat mixed cortical cultures; assay: Aβ1-42-induced cell death (LDH release) in primary mixed cortical cultures; format: cell-based; conditions: 37° C., 5% CO2, 72 hours, varied concentrations, FIG. 1
Method: Mixed cortical cultures are prepared from E18 Wistar rat embryos. The cortices are dissected out and tissue cut into small pieces. The cells are separated by 15-min incubation with DNase and papain. The cells are collected by centrifugation (1500 rpm, 5 min). […] After 3-4 h, the medium is changed to MEM (2 g/L glucose) supplemented with 2 mM glutamine, 10 μg/mL gentamicin, 5% HS-HI. After three days in vitro, medium containing MEM (Minimum Essential Media) (2 g/L glucose) supplemented with glutamine, gentamicin and 5% […] is changed to the cells. On day 6 in vitro, the unwanted cell division is inhibited by adding cytosine arabinoside (10 μM final concentration) for 24 h. The cultures refed with MEM (2 g/L glucose) supplemented with glutamine, gentamicin and 5% HS-HI before experiments. Aß1-42 Exposure The wells in good shape are chosen for experiment on day 10 in vitro. Test compounds are diluted in MEM (2 g/L glucose) supplemented with L-glutamine, gentamicin, and 5% HS-HI. […] The absorbance at 340 nm is measured immediately using a 3-min kinetic measurement protocol in Multiskan FC ELISA reader (Thermo, Finland). The change in absorbance/min is determined, which is directly proportional to the released LDH (=cell death).

## COc1cc2c(cc1OC)C(=O)C(CC1CCN(Cc3ccccc3)CC1)C2 (stereo not drawn) [Donepezil, donepezil]
[1]; Donepezil 0.5 mg/kg p.o. once daily day 0-14, n = 10
  Expression levels of MAP2 gene (Mean ± SD): 0.7 ± 0.2
[2]
  GFAP-positive area: significant decreases

## CNCCc1ccccn1 [Betahistine]
[3]
  Freezing score (memory for context): improved freezing score
[1]; Betahistine high dose (100 mg/kg p.o. once daily day 0-14), n = 10
  Expression levels of MAP2 gene (Mean ± SD): 0.7 ± 0.2
[1]; Betahistine low dose (30 mg/kg p.o. once daily day 0-14), n = 10
  Expression levels of MAP2 gene (Mean ± SD): 0.7 ± 0.2
[1]; icv-STZ mice brain, oral once daily day 0 to day 14, normalized to GAPDH
  MAP2 mRNA expression (in words): significant down regulation
[4]
  affinity as an antagonist for histamine H3 receptors: very strong affinity
[5]
  protective effect against Aβ 1-42-induced cell death: profound protective effect
[2]
  GFAP-positive area: significant decreases
